Measurements taken from patent US4251524A (priority 1976, dated 1981).

What follows are compounds tested on Klebsiella pneumoniae; Enterobacter aerogenes sp.; Providencia; Serratia marcescens; E. coli BE; Salmonella sp.; Shigella sp.; Proteus, indole-negative and …. Conditions: 100 μg/ml, Muller-Hinton nutrient broth with 0.1% glucose, 1×10^5 to 2×10^5 bacteria per ml, 24 hours; all listed cultures.
Format: cell-based

Structure (SMILES)	freedom from turbidity of bacterial cultures (indicates action)
CC1(C)S[C@@H]2[C@H](NC(=O)[C@H](NC(=O)N3CCN(N=Cc4ccccc4)C3=O)c3ccccc3)C(=O)N2[C@H]1C(=O)O [Example 1.3, sodium 6-{D-α-[(2-oxo-3-benzalimino-imidazolidin-1yl)-carbonylamino]phenylacetamido}-penicillanate]	free from turbidity
CC1(C)S[C@@H]2[C@H](NC(=O)[C@H](NC(=O)N3CCN(N=Cc4ccc(Cl)cc4)C3=O)c3ccccc3)C(=O)N2[C@H]1C(=O)O [Example 2.3, sodium 6-{D-α-[(2-oxo-3-{4-chloro}-benzalimino-imidazolidin-1-yl)-carbonylamino]-phenylacetamido}-penicillanate]	free from turbidity
CC1(C)S[C@@H]2[C@H](NC(=O)[C@H](NC(=O)N3CCN(N=Cc4ccc(Cl)cc4)C3=O)C3=CCC=CC3)C(=O)N2[C@H]1C(=O)O [Example 2.4, sodium 6-{D-α-[(2-oxo-3-{4-chloro}-benzalimino-imidazolidin-1-yl)-carbonylamino]-cyclohex-1,4-dien-1-yl-acetamido}-penicillanate]	free from turbidity
CC=CC=NN1CCN(C(=O)N[C@@H](C(=O)N[C@]2(OC)C(=O)N3C(C(=O)O)=C(COC(C)=O)CS[C@@H]32)c2ccccc2)C1=O [Example 36, 7-methoxy-7-{D-α-[(2-oxo-3-but-2-enylideneamino-imidazolidin-1-yl)-carbonylamino]-phenylacetamido}-3-acetoxymethyl-ceph-3-em-4-carboxylic acid]	free from turbidity
COC1(NC(=O)[C@H](NC(=O)N2CCN(N=Cc3ccco3)C2=O)c2ccccc2)C(=O)N2C(C(=O)O)=C(COC(C)=O)CS[C@@H]21 (some centres unmarked) [Example 36.5]	free from turbidity
